# Measured values taken from US10259796B2, “Oxaspiro[2.5]octane derivatives and analogs” (Zafgen, Inc., priority 2011, dated 2019).
# Where two headings read alike, the source gives them in different places.
# Columns and labels:
# [1] = target: T1, recombinant human MetAP2 (Homo sapiens, UniProt P50579); test: MetAP2 enzyme assay (inhibition of recombinant MetAP2, Met-Gly-Met-Met substrate); type: biochemical; settings: 50 nM
# T1 construct: made in house; host or cells: High Five insect cells (Bac-to-Bac baculovirus)
# Method: Exemplary procedures for expression and purification of MetAP2 are shown in Griffith et al. (PNAS (1998) 95(26):15183-15188). Briefly, recombinant His-tagged human MetAP2 is expressed by using a Bac-to-Bac baculovirus expression system (GIBCO/BRL). Recombinant baculovirus stocks are generated and amplified as per the manufacturer's instructions. Protein is harvested 36 hr after baculovirus infection of two 15-cm plates of High Five cells.
# The cell pellet are weighed and lysed (in 5 ml/g of wet pellet) in pre-chilled lysis buffer [buffer B+1% Nonidet P-40/1 mM phenymethylsulfonyl fluoride (PMSF)/2 μg/ml leupeptin/2 μg/ml aprotinin/1 μg/ml pepstatin]. The lysate is incubated on ice for 10 min and centrifuged at 10,000×g for 10 min. […] The Talon resin is pelleted by centrifugation at 1,200×g for 3 min and washed with 4×10 ml of buffer B. During the final wash, the resin is slurried into a Bio-Rad Econo column. The 6×His-tagged MetAP2 is eluted with 6 ml of 50 mM imidazole in buffer B, and 0.5 ml fractions are collected. The amount and purity of recombinant MetAP2 is analyzed by the absorbance at 280 nm and SDS/PAGE (10% gel). The fractions containing the highest amounts of MetAP2 are pooled and dialyzed against 3 liters of buffer B overnight before storage at 4° C.
# An enzyme assay is performed in a 96-well format as described in Griffith et al. (PNAS (1998) 95(26):15183-15188). […] To begin the enzymatic reaction, Met-Gly-Met-Met is added to a final concentration of 4 mM and incubated at 37° C. The reaction is quenched after 20 min by adding EDTA to a concentration of 10 mM. Released methionine is quantitated as described in Ben-Bassat et al. (J Bacteriol (1987) 169:751-757).
# IC50 values are calculated and compounds herein are determined to be active inhibitors of MetAP2, with some having nanomolar activities.
# [2] = Cell Based Assay (inhibition range)
# [3] = Mice weight loss, 7 day, 1 mg/kg/day oral gavage, diet-induced obese mice; type: in vivo; settings: Mus musculus, 168 h, read-out: Mice Wt Loss 7 day % WL 1 mpk
# Text: Lean body mass is important to normal function in subjects. Substantial loss of lean body mass is not a desirable consequence of a therapy for an overweight or obese subject. A study is undertaken to analyze weight loss with respect to lean body mass.
# Mice are divided into two groups, a diet-induced obese group and a lean group (control). For the diet-induced obese group, C57BL/6NTac mice maintained prior to and during the study on a diet containing 60% fat on a kilocalorie basis are further divided into two groups, fifteen mice per group. Average body weight of these diet-induced obese mice is 40 g at the start of the study. For the lean group, fifteen C57BLI6NTac mice are maintained on a diet containing 4.3% by weight fat prior to and during the study. Average body weight of these lean mice is 33 g at the start of the study. Daily food consumption is also recorded.
# Compounds of the invention are administered to one of the diet-induced obese mice groups by oral gavage as a solution in 10% DMSO, at dose of 1 mg/kg/day, 7 days. The other diet-induced obese mice group and the lean mice group are not administered anything.
# [4] = 1 hr, read-out: MetAP2 Enzyme Assay 1 hr 50 nM
# [5] = 2 hr, read-out: MetAP2 Enzyme Assay 2 hr 50 nM
# [6] = 4 hr, read-out: MetAP2 Enzyme Assay 4 hr 50 nM
# [7] = diet-induced obese C57BL/6NTac mice, oral gavage, 1 mg/kg/day, 7 days
# T1 sequence (P50579 whole entry): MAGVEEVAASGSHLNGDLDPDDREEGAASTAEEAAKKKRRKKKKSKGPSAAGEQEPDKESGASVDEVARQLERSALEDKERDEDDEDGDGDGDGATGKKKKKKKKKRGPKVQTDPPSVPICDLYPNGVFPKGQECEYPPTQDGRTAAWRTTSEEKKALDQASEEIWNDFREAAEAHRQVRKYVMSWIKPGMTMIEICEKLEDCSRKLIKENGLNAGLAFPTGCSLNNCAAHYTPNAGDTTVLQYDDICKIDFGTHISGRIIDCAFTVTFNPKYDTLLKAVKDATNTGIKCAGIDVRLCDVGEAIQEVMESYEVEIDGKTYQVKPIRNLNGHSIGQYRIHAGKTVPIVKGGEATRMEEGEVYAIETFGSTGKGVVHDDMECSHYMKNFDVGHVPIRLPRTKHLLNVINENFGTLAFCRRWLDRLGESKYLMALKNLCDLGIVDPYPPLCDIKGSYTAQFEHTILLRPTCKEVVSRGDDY
SMILES,"inhibition at 0.05 µM [1, 4] [%]","inhibition at 0.05 µM [1, 5] [%]","inhibition at 0.05 µM [1, 6] [%]",IC50 ([2]; in uM) [µM],change in vivo at 1 mg/kg ([3]; po) [%],IC50 ([2]; cells printed in nM) [µM],"change in vivo at 1 mg/kg [3, 7] [%]"
C=C1CC[C@]2(CO2)[C@@H]([C@@]2(C)O[C@@H]2CC=C(C)C)[C@@H]1OC [Example 15],26,32,40,0.1 to 1,7.9,–,–
CO[C@@H]1C(=O)CC[C@]2(CO2)[C@H]1C1(C)O[C@@H]1CC(=O)O (some centres unmarked) [Example 55],–,–,0,–,–,–,–
CCOC(=O)C=C1CC[C@]2(CO2)[C@@H]([C@@]2(C)O[C@@H]2CC=C(C)C)[C@@H]1OC [Example 37],–,–,96,–,–,< 0.01,–
CO[C@@H]1[C@H](OC(=O)CCCCCCCCC(=O)O)CC[C@]2(CO2)[C@H]1[C@@]1(C)O[C@@H]1CCC(C)C [Example 9],12,35,50,0.1 to 1,–,–,3.3
CO[C@@H]1[C@H](OC(=O)NC2CN3CCC2CC3)CC[C@]2(CO2)[C@H]1[C@@]1(C)O[C@@H]1CC=C(C)C (some centres unmarked) [Example 30],–,–,30,–,–,< 0.01,-0.9
CO[C@@H]1C(C)CC[C@]2(CO2)[C@H]1[C@@]1(C)O[C@@H]1CCC(C)C (some centres unmarked) [Example 26],0,0,0,–,–,–,–
CCCCCCCCCC[S+]([O-])[C@@H]1CC[C@]2(CO2)[C@@H]([C@@]2(C)O[C@@H]2CC=C(C)C)[C@@H]1OC (some centres unmarked) [Example 31],–,–,0,–,–,–,–
COC(=O)CCCCCCCCC(=O)O[C@@H]1CC[C@]2(CO2)[C@@H]([C@@]2(C)O[C@@H]2CC=C(C)C)[C@@H]1OC [Example 4],46,58,94,–,–,0.01 to 0.1,12.5
"CO[C@@H]1C(=O)CC[C@]2(CO2)[C@H]1C1(C)O[C@@H]1CCC(C)C (stereo in doubt) [Example 52, (3R,5 S)-4-((2R,3R)-3-isopentyl-2-methyloxiran-2-yl)-5-methoxy-1-oxaspiro[2.5]octan-6-one]",0,0,17,–,–,–,–
"CO[C@@H]1C(=O)C=C[C@]2(CO2)[C@H]1[C@@]1(C)O[C@@H]1CC=C(C)C [Example 57, (3R,S)-7-methoxy-8-((2R,3R)-2-methyl-3-(3-methylbut-2-enyl)oxiran-2-yl)-1-oxaspiro[2.5]oct-4-en-6-one]",–,–,37,–,–,–,–
"CO[C@@H]1C(=O)CC[C@]2(CO2)[C@H]1[C@@]1(C)O[C@@H]1CC=C(C)C [Example 51, (3R,5S)-5-methoxy-4-((2R,3R)-2-methyl-3-(3-methylbut-2-enyl)oxiran-2-yl)-1-oxaspiro[2.5]octan-6-one]",0,44,78,–,–,–,–
CO[C@@H]1[C@H](OC(=O)CCCCCCCCC(=O)O)CC[C@]2(CO2)[C@H]1[C@@]1(C)O[C@@H]1CC=C(C)C [Example 5],15,30,50,–,9.5,< 0.01,–
CCCCCCCCCCC(=O)O[C@@H]1CC[C@]2(CO2)[C@@H]([C@@]2(C)O[C@@H]2CC=C(C)C)[C@@H]1OC [Example 12],0,5,29,0.1 to 1,–,–,8.4
CCCCCCCC/C=C\CCCCCCCC(=O)O[C@@H]1CC[C@]2(CO2)[C@@H]([C@@]2(C)O[C@@H]2CC=C(C)C)[C@@H]1OC [Example 16],0,0,0,> 1,5.4,–,–
